Assay results reported in patent US4804668A, “Thiazole derivatives and medical compositions thereof” (Zenyaku Kogyo Kabushiki Kaisha, priority 1985, dated 1989).

What was measured:
[1] = test system: isolated left atrium; experiment: Effect on contractile force of isolated left atrium (electrically stimulated, Magnus's bath); parameters: species or system guinea pig (male Hartley, 7 weeks old); conditions: Corresponding Concentration 1 × 10^-4 (mol); isolated guinea pig left atrium, Krebs-Henseleit solution, stimulated at 0.5 cps, 5 msec, 20% above threshold
Experimental: (1) The contractile force of left atrium was tested according to the method described in Basic Lectures of Medicine Development, Volume V, Pharmacological Test Methods, Part 2, page 535 (1971). A 7-weeks-old male Hartley guinea pig (having a bodyweight of about 350 g) was killed by a blow on a head. The chest was opened and the heart was removed and placed in Krebs-Henseleit solution (prepared by adding distilled water to 6.92 g of sodium chloride, 0.35 g of calcium chloride, 0.29 g of magnesium sulfate, 0.16 g of mono-basic potassium phosphate, 2.1 g of sodium bicarbonate and 1.8 g of glucose so that the total amount was 1 l) which sufficiently bubbled with oxygen gas. Threads were tied to each tip of the left atrium. One thread was attached to a fixed pin in Magnus's bath and the other to a force-displacement transducer connected to an electric amplifier and recorder. The atrium was stimulated electrically at 0.5 cps, 5 msec and a voltage of 20% above threshold. The preparation is mounted in Krebs-Henseleit solution through which 95% oxygen gas and 5% carbon dioxide was blown. Then the samples were added.
Further, the above-mentioned tests were carried out by using following apparatuses.
Magnus's bath: supplied by Kabushiki Kaisha Natsume Seisakusho
Recorder: Model WI-680G supplied by Nippon Koden Kabushiki Kaisha
Force displacement transducer: supplied by Nippon Koden Kabushiki Kaisha
Electrical amplifier: Model AP-600G supplied by Nippon Koden Kabushiki Kaisha
Programmed electrosphygmonometer: supplied by Nippon Koden Kabushiki Kaisha

[2] = Acute toxicity (Litchfield-Wilcoxon method), intraperitoneal injection; parameters: species or system mouse (6-weeks-old male ddY); conditions: mouse, in vivo, ip, male ddY mice, 6 weeks old, 19-24 g
Experimental: (2) The acute toxicity of the compound of the formula I was determined according to the Litchfield-Wilcoxon method, J. Pharm. Exp. Ther., 96, 99 (1949) using 6-weeks-old male ddY mice (having a bodyweight of 19-24 g) while administrating the sample compound in intraperitonial injection.

| Compound | Maximum Contractile Force [1] | LD50 [2] [mg/kg] |
| --- | --- | --- |
| Cc1nc(C#N)sc1-c1ccncc1 [R1 = --CN, R2 = --CH3, R3 = 4-pyridinyl, 2-cyano-4-methyl-5-(4-pyridinyl)-thiazole] | 558 ± 123 mg | – |
| Cc1nc(C(N)=O)sc1-c1ccncc1 [4-Methyl-5-(4-pyridinyl)-thiazole-2-carboxamide] | 1,325 ± 132 mg | 230 |
| CNC(=O)c1nc(C)c(-c2ccncc2)s1 [R1 = --CONHCH3, R2 = --CH3, R3, N,4-Dimethyl-5-(4-pyridinyl)-thiazole-2-carboxamide] | 510 ± 45 mg | – |
| COC(=O)c1nc(C)c(-c2ccncc2)s1 [Methyl 4-methyl-5-(4-pyridinyl)-thiazole-2-carboxylate] | 446 ± 91 mg | – |
